Reference: patent US20100047231A1, “Immuno-Stimulant Combination for Prophylaxis and Treatment of Hepatitis C” (priority 2005, published 2010)

Legend:
Assay type in all cases: in vivo
HHD mice [1] = experiment: IFN-γ production (ELISA) by splenocytes from immunised HHD mice stimulated with peptides or NS3; conditions: 100 μg NS3 + poly(I:C) + anti-CD40, two immunisations, sixty days after the second
Experimental: (§1) Groups of two mice were immunised via the i.p. route with 50 μg of anti-CD40. Four hours later, they were injected with 50 μg of poly(I:C) (i.v.) and different amounts of the antigens: NS3 protein or mixtures of NS3 with peptides (i.p.).
Splenic cells were resuspended in complete medium and plated at 8×10^5 cells/well in 0.2 ml on 96-well plates with U-shaped bottom, in the absence or presence of peptides or of the recombinant NS3 protein of the HCV.
Two days afterwards, the supernatants were collected for measuring the presence of IFN-γ by means of ELISA (BD-Pharmingen), following the manufacturer's instructions.

HHD mice [2] = experiment: Lythic activity of CTL (chromium release) of splenocytes from immunised HHD mice against peptide-loaded T2 target cells; conditions: 100 μg NS3 + poly(I:C) + anti-CD40, two immunisations, sixty days after the second (FIG. 5B)
Experimental: as §1
(§2) In order to measure the CTL responses, the splenocytes coming from the immunised animals were incubated with peptides (10 μM) for 2 h at 37° C., washed twice and cultured on 24-well plates with a confluence of 7.5×10^6 cells/well. In experiments conducted for measuring the recognition of T1/HCVcon cells, 7.5×10^6 splenocytes of HHD mice were cultured with 7.5×10^5 T1/HCVcon cells previously treated with Mitomycin C (Sigma). In all cases, two days later, 2.5 U/ml of IL-2 (Boehringer-Mannheim GmbH, Germany) was added to the wells and 5 days later the cells were recovered in order to carry out chromium release assays.
(§3) The lythic activity was measured by incubating different quantities of effector cells for 4 h with 3000 T2 target cells previously loaded with 51Cr, with and without peptide (target). […]
(§4) The specific lysis percentage was calculated according to the formula: […]
(§5) where the spontaneous lysis (measured as cpmspontaneous) corresponds to target cells incubated in the absence of effector cells, and the maximum lysis (cpmmaximum) is obtained by incubating target cells with 5% Tritonx100.

T1/HCVcon cells = experiment: Lythic activity of splenocytes from immunised HHD mice against T1/HCVcon cells (chromium release); conditions: 100 μg NS3 + poly(I:C) + anti-CD40, six days after immunisation, splenocytes stimulated five days with T1/HCVcon cells and IL-2 (FIG. 4)
Experimental: as §1, §2, §3, §4, §5

NS3 protein (SEQ. ID. NO: 2): Recombinant polypeptide with 635-amino-acid complete HCV NS3 sequence and His tail, expressed in E. coli; given with poly(I:C) and anti-CD40
Lasting CD4+ response, IFN-γ production on stimulation with NS3 protein (HHD mice [1]; NS3 1 μg/ml, 48 h (FIG. 5C)): potent and lasting CD4+ responses | Lasting CD8+ response, production of IFN-γ on stimulation with peptide 1073 (HHD mice [1]; peptide 1073 10 μM, 48 h (FIG. 5A)): capable of producing large amounts of IFN-γ | Lasting CD8+ response, lythic activity against target cells loaded with peptide 1073 (HHD mice [2]): capable of lysing target cells pulsed with the peptide 1073 | Lysis of T1/HCVcon cells versus T1 control cells (T1/HCVcon cells): greater capacity to lyse T1 cells, which expressed proteins of the HCV
